By IC50 is commonly meant the concentration that inhibits the measured activity by half. For orientation: EC50 means the midpoint of the concentration-response curve.

In test [1] the target is T1, human Fpn (Homo sapiens, UniProt Q9NP59).
T1 construct: FLAG (C); made in house; host or cells: Pichia pastoris
T1 sequence (Q9NP59 1-571): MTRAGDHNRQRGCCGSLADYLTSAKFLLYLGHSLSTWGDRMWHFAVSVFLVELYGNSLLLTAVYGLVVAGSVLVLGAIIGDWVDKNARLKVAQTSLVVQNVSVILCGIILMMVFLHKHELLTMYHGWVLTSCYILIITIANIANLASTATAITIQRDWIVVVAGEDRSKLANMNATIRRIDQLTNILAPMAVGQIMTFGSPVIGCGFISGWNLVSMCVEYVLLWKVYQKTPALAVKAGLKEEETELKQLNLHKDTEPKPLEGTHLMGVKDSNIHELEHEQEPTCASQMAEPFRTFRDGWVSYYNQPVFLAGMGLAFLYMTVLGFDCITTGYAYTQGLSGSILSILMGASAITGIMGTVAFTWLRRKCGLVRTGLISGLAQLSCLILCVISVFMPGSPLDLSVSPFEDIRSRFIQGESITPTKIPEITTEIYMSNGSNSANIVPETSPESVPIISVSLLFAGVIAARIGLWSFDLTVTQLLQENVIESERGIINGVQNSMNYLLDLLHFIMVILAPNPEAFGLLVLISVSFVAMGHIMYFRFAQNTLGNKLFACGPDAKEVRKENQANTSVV
Kind of test: Biophysical ferroportin-hepcidin binding assay (fluorescence polarization). The conditions noted are these: TMR-hepcidin, tested as 3HCl-salts, n=2, read-out: Biophysical Ferroportin-Hepcidin Binding (FP) IC50. Here is the method:
This biophysical assay was developed to confirm inhibition of hepcidin binding to ferroportin (Fpn) more directly. Incubation of TMR-hepcidin with purified human Fpn isolated from Pichia pastoris yeast cells expressing human Fpn with a C-terminal FLAG affinity tag (Bonaccorsi di Patti, 2014) leads to increased fluorescence polarization (FP) of the TMR-hepcidin ligand.
A mixture of […] human Fpn and 30 nM TMR-hepcidin in FP assay buffer containing 50 mM Tris-HCI pH 7.3, 200 mM NaCI, 0.02% DDM, 0.1% BSA was plated into a 384 well black low volume round bottom plate (Corning, Cat. 3677) at […] per well. […] of serial dilutions of test compounds were added in duplicates to reach final Fpn and TMR-hepcidin concentrations of […] and 20 nM, respectively. Plates were incubated for 90 minutes at room temperature and parallel (S) and perpendicular (P) fluorescence was measured in a Synergy H1 fluorescence reader (BioTek). FP values were calculated in mP according to the following formula.
IC50 values were determined with the calculated mP values as described for the hepcidin internalization assay and are listed in Table 2.

The target of test [2] is T2, ferroportin (Fpn) (Homo sapiens, UniProt Q9NP59).
T2 construct: expressed in transfected cells; host or cells: HEK-293 cell line #354 (derivative of HEK-293 Tet-ON Advanced)
T2 sequence (Q9NP59 1-571): T1 sequence (Q9NP59 1-571)
Briefly: Inhibition of ferroportin mediated iron export activity in an iron response assay (BLA reporter, HEK-293 cell line #354). In kind it is cell-based. The note with it: for IC50: HEK-293 cell line #354, BLA reporter, tested as 3HCl-salts, n=3, read-out: Iron response (HEK354 Blazer) IC50; for EC50: average of multiple measurements, iron response assay, 3HCl-salts, read-out: BLAzer EC50. An excerpt:
Intracellular iron levels are indirectly measured in this assay by monitoring the activity of a beta-lactamase (BLA) reporter gene fused to the human ferritin promoter and the associated iron regulatory element (IRE) contained within the 5′ untranslated region of the ferritin mRNA. Expression of ferroportin (Fpn) in such a cell line leads to iron efflux and lower iron levels as reflected by lower activity of the reporter gene. On the other hand, inhibition of Fpn-mediated iron efflux results in elevated cellular iron levels which is detected as increased reporter gene activity. Small molecular weight Fpn inhibitor compounds were tested for dose-dependent effects in this in vitro iron response assay as described below.
The HEK-293 cell line #354 was generated by stable integration of (i) a human Fpn-GFP fusion construct inserted in a derivative of the doxycycline-inducible pTRE-Tight-BI plasmid (Clontech, Cat. 631068) and (ii) a human ferritin promoter-BLA reporter gene into a derivative of the HEK-293 Tet-ON Advanced cell line (Clontech). To generate the ferritin-BLA reporter gene construct, a 1.4 kb fragment of the human ferritin H promoter was amplified by PCR from human genomic DNA (forward primer 5′-[…]-3′; reverse primer 5′-GGCGGCGACTAAGGAGAGG-3′) and inserted in front of the BLA gene present in the pcDNA™6.2/cGeneBLAzer™-DEST plasmid (Invitrogen, Cat. 12578-043) thereby replacing the original CMV promoter and placing the IRE that regulates translation of the ferritin gene ca. 170 bp upstream of the start codon of the reporter gene. #354 cells were harvested from ca. 80% confluent cultures, seeded at 1.8x10^5 cells/ml in DMEM/F12 GlutaMAX™ medium (Invitrogen, Cat. 31331-028) containing 10% FBS (Clontech, Cat. 631106), 1% Penicillin-Streptomycin, 200 µg/ml Hygromycin B (Invitrogen, Cat. 10687-010), Blasticidin 5 µg/ml, (Invitrogen, Cat. R210-01), 4 µg/ml doxycycline (Clontech, Cat. 631311), 50 µl per well of 384 well PDL-coated plates and grown at 37° C. with 5% CO2. After overnight incubation, 10 µl/well of dilution series of the test compounds were added in quadruplicates and plates were further incubated overnight at 37° C. with 5% CO2. Cells were washed 3 times with HBSS leaving 25 µl per well. BLA activity was detected by adding 5 µl/well of the GeneBlazer reagent CCF4-AM (Invitrogen, Cat. K1085) to the cells. After incubation of the plates in the dark at 18° C. for 60 min., blue and green fluorescence signals were measured in a Safire2 fluorescence plate reader (Tecan) with excitation at 410 nm and emissions at 458 nm (blue) and 522 nm (green). The ratio of blue/green fluorescence as a measure for BLA activity was calculated and EC50 values were determined with the calculated blue/green fluorescence ratios as described for the hepcidin internalization assay.

With `O=C(NCc1ncccc1F)c1coc(CCNCCc2nc3ccccc3[nH]2)n1` [Compound (II)], the IC50 in test [1] is 28 nM; in test [2], 156 nM. Also, the EC50 in test [2] turned out to be 156 nM.
Consider `O=C(NCc1ncccc1Br)c1coc(CCNCCc2nc3ccccc3[nH]2)n1` [Compound (II′)], for which the concentration for half-maximal inhibition (IC50) in test [1] was found to be 28 nM. Besides, in test [2], the IC50 was determined as 168 nM and the EC50 is 168 nM.
With `CC[C@H](C)[C@@H]1NC(=O)[C@@H](NC(=O)[C@@H](NC(=O)[C@@H]2CCCN2C(=O)[C@H](Cc2ccccc2)NC(=O)[C@H](Cc2c[nH]cn2)NC(=O)[C@@H](NC(=O)[C@@H](N)CC(=O)O)[C@@H](C)O)[C@@H](C)CC)CSSC[C@@H](C(=O)N[C@@H](CCCCN)C(=O)N[C@H](C(=O)O)[C@@H](C)O)NC(=O)[C@@H]2CSSC[C@@H]3NC(=O)[C@@H]4CSSC[C@H](NC(=O)[C@H](Cc5ccccc5)NC1=O)C(=O)N[C@@H](CSSC[C@H](NC(=O)[C@H](CCCCN)NC(=O)[C@H](CO)NC(=O)[C@H](CCCNC(=N)N)NC(=O)[C@H](Cc1c[nH]cn1)NC3=O)C(=O)NCC(=O)N[C@@H](CCSC)C(=O)N2)C(=O)NCC(=O)N4` [hepcidin, reference compound], the IC50 in test [2] stood at 39 nM.

The values are drawn from patent publication US20230212159A1, “Process for the Production of Ferroportin Inhibitors” (Vifor (International) AG, priority 2020, published 2023).
